Tests used:
Assay type in all cases: cell-based
[1] = tested on: M21 human melanoma cells; assay: Chemoresistance: caspases 3/7 activity with etoposide; settings: in presence of wt FGF
Protocol: M21 human melanoma cells were cultured in DMEM with 1% FBS for 48 h, and then treated with etoposide (0.1-100 μM) in the presence or absence of wt or mutant FGF for 48 h.
Cells were plated on well of 96-well tissue culture plates and serum-starved for 48-72 h in DMEM supplemented with 0-1% FBS. Then cells were treated with etoposide (up to 100 μM) and wt or mutant FGF for additional 24-48 h. Cell viability was determined using CellTiter 96 MTS assay (Promega) and caspases 3/7 activity was determined by using Caspase-Glo 3/7 assay kit (Promega). FIGS. 10 and 11.

[2] = tested on: αvβ3-K562 cells; assay: Cell adhesion assay on immobilized FGF-1, αvβ3-K562 cells; settings: 1 mM MnCl2
Protocol: Wells of 96-well microtiter plates were coated with FGF-1 at the indicated concentrations and remaining protein binding sites were blocked with 1 mg/ml BSA. Hepes-Tyrode buffer supplemental with 1 mM MnCl2) was used for adhesion assays. Prior to incubation with immobilized FGF-1, αvβ3-K562 cells were treated with 10 μg/ml anti-β3 function-blocking antibody 7E3 (triangle), anti-α5 function-blocking antibody KH72 (square), both 7E3 and KH72 (circle), or mouse IgG (diamond). BSA (cross) was used as a negative control. Data is shown as means+/−SD of triplicate experiments.
(§1) Wells of polystyrene 96-well non-tissue culture plate were coated with wild type or mutants FGF-1 as above. In adhesion assay, cells (10^5 cells/well) in 100 μl of Hepes-Tyrode buffer supplemented with 1 mM Mn^2+ were added to the wells and incubated at 37° C. for 1 h. After non-bound cells were removed by rinsing the wells with the same buffer, bound cells were quantified by measuring endogenous phosphatase activity (Prater et al., 1991)

[3] = tested on: K562 cells; assay: Cell adhesion assay on immobilized FGF-1, mock-transfected K562 cells; settings: 1 mM MnCl2
Protocol: K562 cells were treated with 10 μg/ml anti-α5 function-blocking antibody KH72 (square) or mouse IgG (diamond) for 10 min on ice. Hepes-Tyrode buffer supplemented with 1 mM MnCl2) was used for adhesion assays. Bound cells were quantified by measuring endogenous phosphatase activity. BSA (cross) was used as a negative control. Data is shown as means+/−SD of triplicate experiments.
as §1

Substance	effect on caspase activation [1]	adhesion of αvβ3-K562 cells to the immobilized protein [2]	adhesion of mock-transfected K562 cells to the immobilized protein [3]
R50E: FGF-1 mutant with the Arg-50 to Glu (R50E) mutation	blocked inhibition of caspase activation	–	–
Wild type: human FGF-1 (acidic FGF), wild type, expressed in E. coli	–	bound to immobilized FGF-1 in a dose-dependent manner	bound to immobilized FGF-1 in a dose-dependent manner

From patent US8796209B2, “Compositions and methods related to anti-FGF agents” (The Regents of the University of California, priority 2005, dated 2014)
